What was measured:
leukemia cells K562 = settings: read-out: ID50; K562, incorporation of tritiated thymidine at 48 hours
Procedure: (§1) The evaluation of the cytotoxic activities of the compounds (1) was carried out "in vitro" measuring, according to known methods, the inhibition of the colony formation, the cell viability (Trypan blu) and the incorporation of tritiated thymidine in tumoral and normal cells.

leukemia cells Jurkat = settings: read-out: ID50, incorporation of tritiated thymidine at 48 hours
Procedure: as §1

leukemia cells P388 = settings: read-out: ID50; P388, incorporation of tritiated thymidine at 48 hours
Procedure: as §1

For “cis-diamino-chloro-(4-amino)benzoate-platinum(II) hydrochloride [Compound 1A]”, the IC50 (leukemia cells K562) was 26.3 µM, the IC50 (leukemia cells Jurkat) was 21.3 µM and the IC50 (leukemia cells P388) was 11.4 µM.

Source: US5405869A, “Anti-tumor platinum complexes” (Istituto Nazionale per la Ricerca sul Cancro, priority 1991, dated 1995)
